What all share (type): cell-based
For one experiment, the system named is IFNα. Kind of experiment: Cytokine profiling assay in human PBMCs, IFNα detection (MSD). The settings on record: PBMC; cryopreserved human PBMCs, 24 hours at 37° C.; concentration at half-maximal effect, normalized percent activation; read-out: IFNa AC50. An excerpt: (§1) Cryopreserved human PBMCs isolated from healthy donors were purchased from StemCell Technologies (Vancouver, Canada). Cell culture medium used was RPMI with L-Glutamine (Mediatech, Manassas, Va.) supplemented with 10% fetal bovine serum (Hyclone, GE Healthcare, Logan, Utah) and Penicillin-Streptomycin (Mediatech). Human TNFα, IL12p40, and IFNα2a 384-well Assay capture plates, standards, buffers and processing reagents were obtained from MesoScale Discovery Technologies (MSD; Rockville, Md.).
(§2) Cryopreserved human PBMCs (1×10e8 cells/ml) were thawed at 37° C. and resuspended in 25 mL warm cell culture medium. The cells were pelleted at 200×g (Beckman Avanti J-E) for 5 min and resuspended in 20 mL of fresh culture media. Cells were counted using a Cellometer (Nexcelcom Bioscience), adjusted to 2×10e6 cells, and incubated for 2 hours in an incubator set at 37° C., 5% CO2 to recover from cryopreservation. Compounds were serially diluted in DMSO at half-log steps to generate a 10-point dose range. Using a Bravo pipette equipped with a 384 well head (Agilent), 0.4 μL of compound was transferred to each well of a 384 well black, clear bottom plate (Greiner Bio-One, Germany) containing 30 μL of cell culture medium. Recovered PBMCs were then dispensed into the assay plate at 50 μL per well (100 k cells/well) using the MicroFlow multichannel dispenser (Biotek). Final DMSO concentration was 0.5%. DMSO was used as the negative control. The plates were incubated for 24 hours at 37° C. PBMCs in the assay plate were pelleted by centrifugation (Beckman Avanti J-E) at 200×g for 5 min.
(§3) Using a Biomek FX 384 well pipetting station (Beckman), conditioned culture medium (CCM) from the assay plate was transferred to MSD capture plates customized for each cytokine. For IFNα and IL12-p40 detection, 25 μL and 20 μL of CCM were added directly to each capture plate, respectively. For TNFα detection, CCM was diluted 1:9 in fresh culture medium, and 20 μL of diluted CCM was used. Serially diluted calibration standards for each cytokine were used to generate standard curves and establish assay linearity. The plates were sealed and incubated overnight at 4° C. in a plate shaker (Titer Plate) set at 200 rpm. On the following day, antibodies specific for each cytokine were diluted 1:50 in MSD Diluent 100 antibody dilution buffer. Diluted antibodies were added to corresponding capture plates at 10 μL/well, and incubated at RT for 1-2 hrs in the shaker. The plates were washed with PBST buffer (3×, 60 μl/well) using a Biotek Multiflow plate washer. MSD Read Buffer diluted to 2× in deionized water and 35 μL/well was added via Biomek FX instrument. The plates were read immediately in a MSD6000 reader. Data were normalized to positive and negative controls in each assay plate. AC50 values represent compound concentrations at half-maximal effect based on normalized percent activation and calculated by non-linear regression using Pipeline Pilot software (Accelrys, San Diego, Calif.).

Another experiment concerns IL12p40. Kind of experiment: Cytokine profiling assay in human PBMCs, IL12-p40 detection (MSD). The conditions noted are these: PBMC; cryopreserved human PBMCs, 24 hours at 37° C.; concentration at half-maximal effect, normalized percent activation.
Text: as §1, §2, §3

A further experiment relates to TNFα. As to the kind of experiment: Cytokine profiling assay in human PBMCs, TNFα detection (MSD). The conditions noted are these: PBMC; cryopreserved human PBMCs, 24 hours at 37° C.; concentration at half-maximal effect, normalized percent activation; read-out: TNFa AC50.
Text: as §1, §2, §3

The structures appear in SMILES notation.

For orientation: AC50 means the concentration at which the activity in the assay is half-maximal. As for `CCCC[C@](C)(CNC(C)=O)Nc1nc(N)nc2cc(OC)cnc12` [Compound 4, (R)—N-(2-((2-amino-7-methoxypyrido[3,2-d]pyrimidin-4-yl)amino)-2-methylhexyl)acetamide], the values for the AC50 with IFNα, in the experiment on IL12p40 and in the experiment on TNFα were above 50 µM, 0.12 µM and 0.122 µM, respectively.
Take `CCCC[C@](C)(CNC(C)=O)Nc1nc(N)nc2cc(OCC)cnc12` [Compound 5, (R)—N-(2-((2-amino-7-ethoxypyrido[3,2-d]pyrimidin-4-yl)amino)-2-methylhexyl)acetamide]: the results for the AC50 with IFNα, with IL12p40 and with TNFα were above 50 µM, 0.0484 µM and 0.0812 µM, respectively.
`CCCC[C@H](CNC(C)=O)Nc1nc(N)nc2cc(F)cnc12` [Compound 8, (R)—N-(2-((2-amino-7-fluoropyrido[3,2-d]pyrimidin-4-yl)amino)hexyl)acetamide]: the half-maximal activity concentration (AC50) was above 50 µM in the experiment on IFNα, 1.48 µM with IL12p40 and 1.88 µM in the experiment on TNFα.
For `CCCC[C@](C)(CNC(C)=O)Nc1nc(N)nc2cc(CC)cnc12` [Compound 1, (R)—N-(2-((2-amino-7-ethylpyrido[3,2-d]pyrimidin-4-yl)amino)-2-methylhexyl)acetamide] the same measures were 44.6 µM, 0.0604 µM and 0.0853 µM.
`CCC[C@](C)(CNC(C)=O)Nc1nc(N)nc2cccnc12` [Compound 6, (R)—N-(2-((2-aminopyrido[3,2-d]pyrimidin-4-yl)amino)-2-methylpentyl)acetamide]: the figures for the concentration at half-maximal activity (AC50) with IFNα, in the experiment with IL12p40 and in the experiment with TNFα were above 50 µM, 1.24 µM and 1.46 µM, respectively.
For `CCCCCC[C@](C)(CNC(C)=O)Nc1nc(N)nc2cccnc12` [Compound 7] the same measures were above 50 µM, 2.67 µM and 4.19 µM.
In the same order, the values of `CCCC[C@](C)(CNC(C)=O)Nc1nc(N)nc2cc(C(C)C)cnc12` [Compound 2, (R)—N-(2-((2-amino-7-isopropylpyrido[3,2-d]pyrimidin-4-yl)amino)-2-methylhexyl)acetamide] are 35 µM, 0.209 µM and 0.262 µM.

These data come from patent US10640499B2 (Gilead Sciences, Inc., priority 2016, dated 2020).
